Source: publication PMC6592895, “Unusual Flavones from Primula macrocalyx as Inhibitors of OAT1 and OAT3 and as Antifungal Agents against Candida rugosa” (Scientific Reports, 2019)
Values after ≈ are worked out from the molar mass of the structure shown. Read-outs that look alike come from different tables or passages of the source.

What was measured:
OAT1 [1] = system: OAT1; set-up: method as in PMID 30248705; conditions: previous study; cited from earlier work
OAT3 [2] = system: OAT3; set-up: method as in PMID 30248705; conditions: previous study; cited from earlier work
[3] = system: Candida rugosa (ATCC 10571); test: Broth microdilution antifungal assay; type: cell-based; conditions: YM broth, 25 °C, read-out: MICs C. rugosa
Procedure: Antifungal activity against C. rugosa (ATCC 10571) was measured as previously described using a broth microdilution method[36]–[38] with minor modifications. The assay was performed in sterile 96-well microtiter plates. Briefly, YM broth was prepared and autoclaved for 20 min at 121 °C, then allowed to cool to room temperature (25 °C). C. rugosa was dispersed in YM broth to an optical density of 1 UA at 600 nm (approximately 1 × 10^7 cfu/mL) using uninoculated broth as the blank. A 198 µL aliquot of the resulting fungal suspension was dispensed into each well of a 96-well plate. Stock solutions of the twelve compounds were prepared in DMSO at a concentration of 50 mM. The stock solutions were diluted to a range of final concentrations (500–0.14 µM) in YM broth such that the final DMSO concentration was no higher than 1%, v/v. A 2 µL aliquot of the resulting test samples was transferred to each well of the plate. Plates were incubated at 25 °C for 24 h prior to measurement of the optical density of each well at 600 nm. […] Amphotericin B was used as positive control.

Candida rugosa = test: Agar well diffusion antimicrobial assay; type: cell-based; conditions: Diutina rugosa, fraction at 1 mg/mL in DMSO, read-out: diameter zone of inhibition
Procedure: Approximately 15 mL aliquots of each medium were dispensed into petri plates and allowed to solidify, then incubated for 24 h to ensure sterility prior to use. Microbial suspensions (0.5 mL) at a density of 5 × 10^6 cfu/mL were inoculated onto the sterile media and allowed to stand for 10–20 min before wells were cut into the agar using a sterile pipet tip. A 10 µL aliquot of a DMSO solution of plant extracts (1 mg/mL) or fractions (2, 0.2, 0.02 mg/mL) were pipetted into each well. Similarly, 10 µL portions of DMSO and a solution of an appropriate antibiotic standard were applied to each plate as negative and positive controls, respectively. All treated plates were incubated for 24 h in incubators at appropriate temperatures. Zones of inhibition were measured in millimeters. The assays were performed in triplicate.

OAT1 [4] = conditions: cited from earlier work
OAT1 [5] = target: T1, OAT1 (Homo sapiens, UniProt Q4U2R8); test: 6-CF uptake assay in HEK-OAT1 cells; conditions: for inhibition at 5 min, 50 µM: human, HEK293 cells stably overexpressing OAT1 (HEK-OAT1), pH 7.2, probe 6-CF (4 µM)
T1 sequence (Q4U2R8 1-563): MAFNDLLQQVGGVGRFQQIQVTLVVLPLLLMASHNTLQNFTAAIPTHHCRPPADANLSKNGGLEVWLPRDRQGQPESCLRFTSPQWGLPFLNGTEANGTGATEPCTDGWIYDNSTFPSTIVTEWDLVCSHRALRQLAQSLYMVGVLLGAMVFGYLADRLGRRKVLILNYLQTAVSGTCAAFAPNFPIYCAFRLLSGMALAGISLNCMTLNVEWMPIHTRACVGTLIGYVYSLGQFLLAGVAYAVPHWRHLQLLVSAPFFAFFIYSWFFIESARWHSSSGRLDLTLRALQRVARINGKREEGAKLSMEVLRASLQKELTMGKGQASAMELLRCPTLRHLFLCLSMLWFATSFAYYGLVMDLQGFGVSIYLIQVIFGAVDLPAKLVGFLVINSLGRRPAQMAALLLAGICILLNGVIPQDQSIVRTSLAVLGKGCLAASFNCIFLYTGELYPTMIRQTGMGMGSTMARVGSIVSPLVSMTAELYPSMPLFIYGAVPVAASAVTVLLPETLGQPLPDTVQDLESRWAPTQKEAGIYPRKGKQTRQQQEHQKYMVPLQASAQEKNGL
Procedure: (§1) The interactions of 12 flavones with the uptake of 6-CF in HEK-OAT1 and HEK-OAT3 cells were evaluated. This cell uptake assay was performed as previously described[14],[35]. A density of 5 × 10^4 cells were seeded per well in 96-well culture plates precoated with poly-D-lysine. […] Uptake was terminated by adding 100 µL ice-cold uptake buffer, and quickly washing the cells in each well three times with ice-cold phosphate-buffered saline (PBS). The cells were lysed with 100 µL of 20 mM Tris-HCl containing 0.2% TritonX-100. […] The protein content of the cell lysate was quantified using a BCA Protein Assay Kit. The intensity of fluorescence was standardized against total protein content, and measured in triplicate. The stock solutions of tested compounds were dissolved in DMSO with a final concentration of 50 mM and dilutions were made using uptake buffer.
(§2) For the uptake experiments, data were analyzed with a two-tailed unpaired Student’s t-test.

OAT3 [6] = target: T2, OAT3 (Homo sapiens, UniProt Q8TCC7); test: 6-CF uptake assay in HEK-OAT3 cells
T2 sequence (Q8TCC7 1-542): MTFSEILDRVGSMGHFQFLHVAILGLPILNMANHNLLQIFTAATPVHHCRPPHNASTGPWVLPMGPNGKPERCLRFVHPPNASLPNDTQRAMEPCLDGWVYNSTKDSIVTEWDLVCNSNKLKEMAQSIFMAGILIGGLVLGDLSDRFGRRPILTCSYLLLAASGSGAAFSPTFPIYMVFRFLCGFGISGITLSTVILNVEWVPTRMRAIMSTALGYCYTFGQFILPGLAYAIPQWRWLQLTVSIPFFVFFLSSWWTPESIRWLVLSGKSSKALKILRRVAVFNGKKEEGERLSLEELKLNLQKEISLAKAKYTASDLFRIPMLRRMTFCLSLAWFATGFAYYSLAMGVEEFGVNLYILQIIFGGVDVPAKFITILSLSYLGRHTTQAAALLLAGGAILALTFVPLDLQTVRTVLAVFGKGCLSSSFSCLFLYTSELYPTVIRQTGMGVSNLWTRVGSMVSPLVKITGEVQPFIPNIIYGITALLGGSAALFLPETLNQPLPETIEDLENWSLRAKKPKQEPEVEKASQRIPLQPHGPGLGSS
Procedure: as §1, §2

OAT1 [7] = conditions: cited from earlier work; remark: listed apart in the source
OAT1 [8] = conditions: read-out: IC50 OAT1; assay similar to that used in this study; cited from earlier work
OAT3 [9] = conditions: cited from earlier work
OAT3 [10] = conditions: read-out: IC50 OAT3; biflavonoids from Juniperus oblonga; cited from earlier work
Oat3 [11] = conditions: rat, in vivo, po; cited from earlier work
[12] = Diutina rugosa, ATCC10571, 24 h

Compound	MIC [3, 12] [µM]	IC50 (OAT1 [5]) [µM]	IC50 (OAT3 [6]) [µM]	also measured
COc1cc2c(=O)c(-c3ccccc3O)coc2c(OC)c1OC [2′-hydroxy-6,7,8-trimethoxyisoflavone]	–	–	–	IC50 (OAT1 [1]): 9.1 µM; IC50 (OAT3 [2]): 8.7 µM
COc1c(O)cc2c(=O)c(-c3ccccc3O)coc2c1OC [6,2′-dihydroxy-7,8-dimethoxyisoflavone]	–	–	–	IC50 (OAT3 [2]): 17.9 µM
COc1cc2c(=O)c(-c3ccccc3O)coc2c(OC)c1O [7,2′-dihydroxy-6,8-dimethoxyisoflavone]	–	–	–	IC50 (OAT3 [2]): 5.6 µM
COc1ccc2c(=O)cc(-c3ccccc3)oc2c1 [7-methoxyflavone]	–	–	–	IC50 (OAT1 [1]): 3.6 µM; IC50 (OAT3 [2]): 5.8 µM
C[C@@H]1[C@H](O)[C@@H](C)/C=C/C=C/C=C/C=C/C=C/C=C/C=C/[C@H](O[C@@H]2O[C@H](C)[C@@H](O)[C@H](N)[C@@H]2O)C[C@@H]2O[C@](O)(C[C@@H](O)C[C@@H](O)[C@H](O)CC[C@@H](O)C[C@@H](O)CC(=O)O[C@H]1C)C[C@H](O)[C@H]2C(=O)O [Amphotericin B, reference compound]	0.4 (≈ 0.37 µg/mL)	–	–	zone of inhibition at 1000 µg/mL (Candida rugosa): 11 mm
O=c1cc(-c2ccc(O)cc2)oc2cc(O)cc(O)c12 [Apigenin]	–	–	–	IC50 (OAT1 [4]): 0.737 µM
COc1ccc(OC)c(-c2cc(=O)c3ccccc3o2)c1 [Compound 4, 2′,5′-dimethoxyflavone]	> 500	32.9	12.1	–
COc1ccc(O)cc1-c1cc(=O)c2ccccc2o1 [Compound 5, 2′-methoxy-5′-hydroxyflavone]	> 500	26.9	27.3	–
COc1cc(-c2cc(=O)c3ccccc3o2)cc(O)c1OC [Compound 6, 3′-hydroxy-4′,5′-dimethoxyflavone]	> 500	3.2	5.1	–
O=c1c(O)c(-c2ccc(O)cc2O)oc2cc(O)cc(O)c12 [Morin]	–	–	–	IC50 (OAT1 [7]; read-out: IC50 OAT1, PAH uptake assay in LLC-PK1 cells): < 0.3 µM
COc1c(O)cc(O)c2c(=O)cc(-c3ccccc3)oc12 [Wogonin]	–	–	–	IC50 (OAT1 [8]): 5.4 µM; IC50 (OAT3 [9]; read-out: IC50 OAT3, assay similar to that used in this study): 1.3 µM
O=c1cc(-c2ccc(O)c(-c3c(O)cc(O)c4c(=O)cc(-c5ccc(O)cc5)oc34)c2)oc2cc(O)cc(O)c12 [amentoflavone]	–	–	–	IC50 (OAT3 [10]): 2 µM; effect on pharmacokinetic parameters of furosemide (substrate of Oat3) (Oat3 [11]): markedly altered
O=c1cc(-c2ccccc2)oc2cc(O)c(O)c(O)c12 [baicalein]	–	–	–	IC50 (OAT3 [9]): 2.4 µM
O=c1cc(-c2ccc(O)cc2)oc2c(-c3c(O)cc(O)c4c(=O)cc(-c5ccc(O)cc5)oc34)c(O)cc(O)c12 [cupressuflavone]	–	–	–	IC50 (OAT3 [10]): > 50 µM
O=c1cc(-c2ccc(O)c(O)c2)oc2cc(O)cc(O)c12 [luteolin]	–	–	–	IC50 (OAT1 [7]): 0.47 µM
COc1ccc(-c2cc(=O)c3c(O)cc(O)c(-c4cc(-c5cc(=O)c6c(O)cc(O)cc6o5)ccc4O)c3o2)cc1 [podocarpusflavone A]	–	–	–	IC50 (OAT3 [10]): 3.8 µM

The next lines start with results.

MIC [3, 12] [µM]	IC50 (OAT1 [5]) [µM]	IC50 (OAT3 [6]) [µM]	Compound	also measured
> 500	–	–	COc1cccc(-c2cc(=O)c3ccccc3o2)c1 [Compound 1, 3′-methoxyflavone]	inhibition at 5 min, 50 µM (OAT1 [5]): < 70%; inhibition at 5 min, 50 µM (OAT3 [6]; human, HEK293 cells stably overexpressing OAT3 (HEK-OAT3), pH 7.2, probe 6-CF (4 µM)): < 70%
500 (≈ 111 µg/mL)	9.4	4.6	O=c1cc(-c2ccccc2)oc2ccccc12 [Compound 2, flavone]	–
> 500	2.9	6.3	COc1ccccc1-c1cc(=O)c2ccccc2o1 [Compound 3, 2′-methoxyflavone]	–
< 2	10	7.4	COc1ccc(OC)c(-c2cc(=O)c3c(OC)c(OC)ccc3o2)c1OC [Compound 8, 5,6,2′,3′,6′-pentamethoxyflavone]	MIC ([3]; 24 h): 1.2 µM (≈ 0.447 µg/mL)
> 500	11.4	8	O=c1cc(-c2cccc(O)c2)oc2ccccc12 [Compound 9, 3′-hydroxyflavone]	–
> 500	–	18.8	O=c1cc(-c2ccccc2O)oc2ccccc12 [Compound 10, 2′-hydroxyflavone]	inhibition at 5 min, 50 µM (OAT1 [5]): < 70%
> 500	–	10.9	COc1cccc(OC)c1-c1cc(=O)c2c(OC)c(OC)cc(OC)c2o1 [Compound 11, 5,6,8,2′,6′-pentamethoxyflavone]	inhibition at 5 min, 50 µM (OAT1 [5]): < 70%
< 2	9.6	2.9	COc1ccccc1-c1cc(=O)c2c(OC)c(OC)ccc2o1 [Compound 12, 5,6,2′-trimethoxyflavone]	MIC ([3]; 24 h): 2.0 µM (≈ 0.625 µg/mL)
